Source: patent US20220323472A1, “ANTI-PARASITIC COMPOUNDS FOR THE TREATMENT AND PREVENTION OF VIRAL DISEASES” (priority 2021, published 2022)

Tested on: Demodex mites
Assay: in vitro Demodex survival time assay (LT50)
Experimental: FIG. 4 summarizes the activity of 10% chloroquine in water relative to a water control on activity against Demodex mites in an in vitro assay, with an LT5o of 31.6 hours for chloroquine compared to 44.8 hours for the water control, illustrating the inactivation effect of chloroquine on Demodex.
Accordingly, chloroquine and ivermectin may be used to treat SAR-CoV-2 by reducing the microbial load or Demodex population of a patient suffering from viral infection.
In vitro efficacy and mite lifetimes: Relative efficacy of various formulations are evaluated with a demodex survival time experiments. FIG. 3 tabulates demodex survival time, expressed in terms of LT50 (time at which 50% of demodex mites are killed) and/or average minutes to death for various active agents.

## CCN(CC)CCCC(C)Nc1ccnc2cc(Cl)ccc12 (centres unmarked) [chloroquine]
10% chloroquine in water, in vitro assay, water control 44.8 hours
  LT50 (time at which 50% of demodex mites are killed): 31.6 h
In vitro assay (FIGS. 3 and 4)
  ex-vivo activity against Demodex mites: some ex-vivo activity
